From patent publication US20240360146A1, “BRUTON'S TYROSINE KINASE AND MUTANT DEGRADER, COMPOSITION AND APPLICATION THEREOF” (HANGZHOU HEALZEN THERAPEUTICS CO., LTD., priority 2021, published 2024)

Columns and labels:
BTK = target: T1, BTK (Homo sapiens, UniProt Q06187); assay: BTK degradation activity test in Mino cells; format: cell-based; details: 16 h incubation, Western blot or Elisa
T1 construct: endogenous in cells; host or cells: Mino cells
In short: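 Mino cells treated with a concentration series of compound for 16 h, then lysed; total protein by BCA. BTK quantified by Western blot or ELISA, degradation rate calculated against blank control, and DC50 fitted from the degradation curve.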

OCI-LY10 cells = assay: Inhibitory activity on OCI-LY10 cell proliferation (MTS); format: cell-based; details: Homo sapiens, 72 h
Description: The anti-tumor efficacy of the compounds was tested by measuring their inhibitory effects on OCI-LY10 and Mino cell proliferation. OCI-LY10 and Mino cells were cultured in RPMI-1640 medium containing 10% fetal calf serum. OCI-LY10 and Mino cells were digested, inoculated in a 96-well plate at a cell concentration of 10000 cells/well, and incubated overnight at 37° C., 5% CO2. Compounds of different concentrations (1000 nM, 4-fold dilution, 8 points) were added to the 96-well plate and incubated for 72 h (LY10) or 168 h (Mino) at 37° C. and 5% CO2, and then 20 uL of MTS was added to each well. After incubation for 2 h, 25 μl of 10% SDS was added to each well to terminate the reaction. The absorbance at 490 nm and 650 nm were measured with a microplate reader. IC50 was calculated using GraphPad Prism 5.0.

Mino cells = assay: Inhibitory activity on Mino cell proliferation (MTS); format: cell-based; details: Homo sapiens, 168 h incubation
In short: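 Cells seeded at 10000/well, treated with compounds from 1000 nM (4-fold, 8 points) for 72 h (OCI-LY10) or 168 h (Mino) at 37° C. MTS added for 2 h, stopped with SDS, absorbance read at 490 and 650 nm; IC50 from dose-response fit.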

[1] = Stability of compounds in human liver microsome; format: in vitro ADME; details: human liver microsomes, NADPH, 37° C., sampling 0-120 min; read-out: Human liver microsome T1/2
Description: Compound to be tested: the compound to be tested (1 mg) was dissolved in DMSO (10 mL) to formulate to 0.1 mg/mL.
Internal standard compound: the internal standard compound (1 mg) was dissolved in DMSO (10 mL), 10 μL was taken and diluted to 10 mL to formulate to 100 ng/mL.
NADPH solution: NADPH (2.08 mg) was dissolved in PBS (50 μL) buffer to formulate to 50 mM.
Under the condition of ice bath, 1 mg of human liver microparticles was add to PBS (1 mL) buffer, then NADPH (20 μL) was added, and incubated at 37° C. for 5 min. 10 μL of the compound to be tested was added, and then samples were taken at 0, 15, 30, 60 and 120 min respectively. 10 μL of the solution was taken with a pipette each time and added to 490 μL of the solution containing the internal standard compound. The resulting solution was vortexed and then placed on ice, and then sampling at another time point continues. All samples were centrifuged at 10,000 rpm for 10 min, and the supernatant was taken for LC/MS testing. The metabolism of the compound in liver microsomes was calculated based on the peak area.

T1 sequence (Q06187 whole entry): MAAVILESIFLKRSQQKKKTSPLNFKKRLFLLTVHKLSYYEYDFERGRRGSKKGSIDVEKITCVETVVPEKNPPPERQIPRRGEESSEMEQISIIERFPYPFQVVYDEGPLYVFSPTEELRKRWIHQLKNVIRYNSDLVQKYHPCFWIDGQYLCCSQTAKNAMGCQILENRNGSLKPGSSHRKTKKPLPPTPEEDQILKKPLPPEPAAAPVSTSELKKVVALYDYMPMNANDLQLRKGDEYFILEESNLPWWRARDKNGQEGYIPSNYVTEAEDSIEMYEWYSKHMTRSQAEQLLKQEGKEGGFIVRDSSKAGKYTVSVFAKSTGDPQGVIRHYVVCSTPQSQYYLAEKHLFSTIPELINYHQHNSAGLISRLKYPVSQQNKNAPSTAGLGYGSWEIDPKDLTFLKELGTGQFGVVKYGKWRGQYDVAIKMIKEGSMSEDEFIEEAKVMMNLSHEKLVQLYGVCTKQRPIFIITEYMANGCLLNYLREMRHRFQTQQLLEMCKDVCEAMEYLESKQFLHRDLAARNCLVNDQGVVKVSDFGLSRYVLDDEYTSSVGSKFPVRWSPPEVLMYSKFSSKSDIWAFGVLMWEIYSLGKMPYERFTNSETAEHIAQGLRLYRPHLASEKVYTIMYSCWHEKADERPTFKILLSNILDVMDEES

Compound	DC50 (BTK)	IC50 (OCI-LY10 cells)	IC50 (Mino cells)	half-life at 0.97 µg/mL [1]
CN1CCN([C@@H]2CCCN(c3nnc(C(N)=O)c(Nc4ccc(C5CCN(CC6CCN(c7cc8c(cc7F)C(=O)N(C7CCC(=O)NC7=O)C8=O)C6)CC5)cc4)n3)C2)C1=O (stereo partly drawn) [Compound 126, 5-((4-(1-((1-(2-(2,6-dioxopiperidin-3-yl)-6-fluoro-1,3-dioxoisoindolin-5-yl)pyrrolidin-3-yl)methyl)piperidin-4-yl)phenyl)amino)-3-((R)-3-(3-methyl-2-oxoimidazolin-1-yl)piperidin-1-yl)-1,2,4-triazin-6-carboxamide]	< 1 nM	< 0.06 nM	2.99 nM	55.6 min
CN1CCN([C@@H]2CCCN(c3nnc(C(N)=O)c(Nc4ccc(C5CCN(CC6CCN(c7ccc8c(c7)C(=O)N(C7CCC(=O)NC7=O)C8=O)C6)CC5)c(F)c4)n3)C2)C1=O (stereo partly drawn) [Compound 128, 5-((4-(1-((1-(2-(2,6-dioxopiperidin-3-yl)-1,3-dioxoisoindolin-5-yl)pyrrolidin-3-yl)methyl)piperidin-4-yl)-3-fluorophenyl)amino)-3-((R)-3-(3-methyl-2-oxoimidazolin-1-yl)piperidin-1-yl)-1,2,4-triazin-6-carboxamide]	< 1 nM	0.37 nM	1.93 nM	43.2 min
CN1CCN([C@@H]2CCCN(c3nnc(C(N)=O)c(Nc4ccc(N5CCN(CC6CCN(c7ccc8c(c7)C(=O)N(C7CCC(=O)NC7=O)C8=O)CC6)CC5)c(F)c4)n3)C2)C1=O (stereo partly drawn) [Compound 134, 5-((4-(4-((1-(2-(2,6-dioxopiperidin-3-yl)-1,3-dioxoisoindolin-5-yl)piperidin-4-yl)methyl)piperazin-1-yl)-3-fluorophenyl)amino)-3-((R)-3-(3-methyl-2-oxoimidazolin-1-yl)piperidin-1-yl)-1,2,4-triazin-6-carboxamide]	< 1 nM		1.72 nM	> 30 min
Cc1ccc(C(=O)N2CCC(CN3CCN(c4ccc(Nc5nc(N6CCC[C@@H](N7CCN(C)C7=O)C6)nnc5C(N)=O)cc4F)CC3)C2)cc1N1CCC(=O)NC1=O (stereo partly drawn) [Compound 150, 5-((4-(4-((1-(3-(2,4-dioxotetrahydropyrimidin-1(2H)-yl)-4-methylbenzoyl)pyrrolidin-3-yl)methyl)piperazin-1-yl)-3-fluorophenyl)amino)-3-((R)-3-(3-methyl-2-oxoimidazolin-1-yl)piperidin-1-yl)-1,2,4-triazin-6-carboxamide]	< 1 nM		1.91 nM	> 30 min
CN1CCN([C@@H]2CCCN(c3nnc(C(N)=O)c(Nc4ccc(N5CCN(CC6CCN(c7ccc(C(=O)NC8CCC(=O)NC8=O)nc7)C6)CC5)c(F)c4)n3)C2)C1=O (stereo partly drawn) [Compound 173]	< 1 nM			> 30 min
CN1CCN([C@@H]2CCCN(c3nnc(C(N)=O)c(Nc4ccc(N5CCN(CC6CCN(c7ccc(C(=O)NC8CCC(=O)NC8=O)cn7)C6)CC5)c(F)c4)n3)C2)C1=O (stereo partly drawn) [Compound 174, 5-((4-(4-((1-(5-((2,6-dioxopiperidin-3-yl)carbamoyl)pyridin-2-yl)pyrrolidin-3-yl)methyl)piperazin-1-yl)-3-fluorophenyl)amino)-3-((R)-3-(3-methyl-2-oxoimidazolidin-1-yl)piperidin-1-yl)-1,2,4-triazin-6-carboxamide]	< 1 nM	1.03 nM		> 30 min
CN1CCN([C@@H]2CCCN(c3nnc(C(N)=O)c(Nc4ccc(N5CCN(CC6CCN(c7ccc(C(=O)NC8CCC(=O)NC8=O)c8c7OCO8)CC6)CC5)c(F)c4)n3)C2)C1=O (stereo partly drawn) [Compound 177]	< 1 nM		2.99 nM	> 30 min
CN1CCN([C@@H]2CCCN(c3nnc(C(N)=O)c(Nc4ccc(N5CCN(CC6CCN(c7ccc(C(=O)NC8CCC(=O)NC8=O)c8[nH]cnc78)CC6)CC5)c(F)c4)n3)C2)C1=O (stereo partly drawn) [Compound 179, 4-(4-((4-(4-((6-carbamoyl-3-((R)-3-(3-methyl-2-oxoimidazolidin-1-yl)piperidin-1-yl)-1,2,4-triazin-5-yl)amino)-2-fluorophenyl)piperazin-1-yl)methyl)piperidin-1-yl)-N-(2,6-dioxopiperidin-3-yl)-1Hbenzimidazol-7-carboxamide]	< 1 nM		1.47 nM	> 30 min
COc1cc(N2CCC(CN3CCN(c4ccc(Nc5nc(N6CCC[C@@H](N7CCN(C)C7=O)C6)nnc5C(N)=O)cc4F)CC3)CC2)ccc1C(=O)NC1CCC(=O)NC1=O (stereo partly drawn) [Compound 181, 5-((4-(4-((1-(4-((2,6-dioxopiperidin-3-yl)carbamoyl)-3-methoxyphenyl)piperidin-4-yl)methyl)piperazin-1-yl)-3-fluorophenyl)amino)-3-((R)-3-(3-methyl-2-oxoimidazolidin-1-yl)piperidin-1-yl)-1,2,4-triazin-6-carboxamide]	< 1 nM	0.78 nM		> 30 min
CN1CCN([C@@H]2CCCN(c3nnc(C(N)=O)c(Nc4ccc(N5CCN(CC6CCN(c7ccc(N8CCC(=O)NC8=O)c(F)c7)CC6)CC5)c(F)c4)n3)C2)C1=O [Compound 184, (R)-5-((4-(4-((1-(4-(2,4-dioxotetrahydropyrimidin-1(2H)-yl)-3-fluorophenyl)piperidin-4-yl)methyl)piperazin-1-yl)-3-fluorophenyl)amino)-3-(3-(3-methyl-2-oxoimidazolidin-1-yl)piperidin-1-yl)-1,2,4-triazin-6-carboxamide]	< 1 nM	1.56 nM		> 30 min
CN1CCN([C@@H]2CCCN(c3nnc(C(N)=O)c(Nc4ccc(N5CCN(CC6CCN(c7ccc(NC8CCC(=O)NC8=O)c(F)c7)CC6)CC5)c(F)c4)n3)C2)C1=O (stereo partly drawn) [Compound 205, 5-((4-(4-((1-(4-((2,6-dioxopiperidin-3-yl)amino)-3-fluorophenyl)piperidin-4-yl)methyl)piperazin-1-yl)-3-fluorophenyl)amino)-3-((R)-3-(3-methyl-2-oxoimidazolidin-1-yl)piperidin-1-yl)-1,2,4-triazin-6-carboxamide]	< 1 nM	0.57 nM		> 30 min
CN1CCN([C@@H]2CCCN(c3nnc(C(N)=O)c(Nc4ccc(N5CCN(CC6CCN(c7ccc8c(c7)n(C)c(=O)n8C7CCC(=O)NC7=O)C6)CC5)c(F)c4)n3)C2)C1=O (stereo partly drawn) [Compound 218, 5-((4-(4-((1-(1-(2,6-dioxopiperidin-3-yl)-3-methyl-2-oxo-2,3-dihydro-H-benzo[d]imidazol-5-yl)pyrrolidin-3-yl)methyl)piperazin-1-yl)-3-fluorophenyl)amino)-3-((R)-3-(3-methyl-2-oxoimidazolidin-1-yl)piperidin-1-yl)-1,2,4-triazin-6-carboxamide]	< 1 nM			> 30 min
CN1CCN([C@@H]2CCCN(c3nnc(C(N)=O)c(Nc4ccc(N5CCN(CC6CCN(c7ccc8c9c([nH]c8c7)C(=O)N(C7CCC(=O)NC7=O)C9)CC6)CC5)c(F)c4)n3)C2)C1=O (stereo partly drawn) [Compound 222, 5-((4-(4-((1-(2-(2,6-dioxopiperidin-3-yl)-3-oxo-1,2,3,4-tetrahydropyrrolo[3,4-b]indol-6-yl)piperidin-4-yl)methyl)piperazin-1-yl)-3-fluorophenyl)amino)-3-((R)-3-(3-methyl-2-oxoimidazolidin-1-yl)piperidin-1-yl)-1,2,4-triazin-6-carboxamide]	< 1 nM		4.15 nM	> 30 min
CN1CCN([C@@H]2CCCN(c3nnc(C(N)=O)c(Nc4ccc(N5CCN(CC6CCN(c7ccc8c(=O)n(C9CCC(=O)NC9=O)ccc8c7)CC6)CC5)c(F)c4)n3)C2)C1=O (stereo partly drawn) [Compound 232, 5-((4-(4-((1-(2-(2,6-dioxopiperidin-3-yl)-1-oxo-1,2-dihydroisoquinolin-6-yl)piperidin-4-yl)methyl)piperazin-1-yl)-3-fluorophenyl)amino)-3-((R)-3-(3-methyl-2-oxoimidazolidin-1-yl)piperidin-1-yl)-1,2,4-triazin-6-carboxamide]	< 1 nM	0.83 nM		> 30 min
